Reference: US12479838B2, “D3 receptor agonist compounds; methods of preparation; intermediates thereof; and methods of use thereof” (THE UNITED STATES OF AMERICA, AS REPRESENTED BY THE …, priority 2019, dated 2025)

Assays:
[1] = biological target: human D3R (Homo sapiens (Human), UniProt P35462); experiment: Radioligand competition binding vs. [3H]-(R)-(+)-7-OH-DPAT, hD3R; conditions: vs. [3H]-(R)-(+)-7-OH-DPAT; for D2R/D3R: ratio of Ki, D3R selectivity over D2R; for Ki: HEK293 cells stably expressing hD3R, read-out: D3R Ki ± SEM
human D3R, sequence (P35462 whole entry): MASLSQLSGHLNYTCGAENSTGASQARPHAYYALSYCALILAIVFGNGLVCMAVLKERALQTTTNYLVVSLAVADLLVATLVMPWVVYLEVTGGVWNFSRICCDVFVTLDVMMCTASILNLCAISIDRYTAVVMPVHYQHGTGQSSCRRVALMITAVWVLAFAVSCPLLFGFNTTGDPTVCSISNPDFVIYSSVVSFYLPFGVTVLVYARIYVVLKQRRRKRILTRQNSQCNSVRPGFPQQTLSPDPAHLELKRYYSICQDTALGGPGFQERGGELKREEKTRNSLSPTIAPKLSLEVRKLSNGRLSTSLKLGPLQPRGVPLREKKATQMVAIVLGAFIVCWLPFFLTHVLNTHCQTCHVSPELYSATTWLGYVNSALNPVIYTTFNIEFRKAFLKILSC

[2] = biological target: human D2LR (Homo sapiens (Human), UniProt P14416); experiment: Radioligand competition binding vs. [3H]-(R)-(+)-7-OH-DPAT, hD2R; conditions: vs. [3H]-(R)-(+)-7-OH-DPAT; HEK293 cells stably expressing hD2R; read-out: D2R Ki ± SEM
human D2LR, sequence (P14416 whole entry): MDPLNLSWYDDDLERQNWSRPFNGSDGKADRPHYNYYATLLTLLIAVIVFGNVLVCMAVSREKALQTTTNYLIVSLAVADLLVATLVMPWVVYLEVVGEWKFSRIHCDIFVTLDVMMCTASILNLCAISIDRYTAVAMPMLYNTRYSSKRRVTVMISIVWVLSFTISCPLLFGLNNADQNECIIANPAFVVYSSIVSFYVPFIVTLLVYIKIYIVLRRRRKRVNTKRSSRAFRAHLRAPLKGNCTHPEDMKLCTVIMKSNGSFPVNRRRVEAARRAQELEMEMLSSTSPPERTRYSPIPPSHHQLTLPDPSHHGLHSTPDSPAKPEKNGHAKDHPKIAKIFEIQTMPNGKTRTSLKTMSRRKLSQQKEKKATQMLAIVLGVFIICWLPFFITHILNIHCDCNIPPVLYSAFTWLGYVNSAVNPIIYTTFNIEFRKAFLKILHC

| Structure (SMILES) | D2R/D3R [1] | Ki [1] [µM] | Ki [2] [µM] | D3R affinity, fold better than its (2R,5S) diastereoisomer [1] [fold] |
| --- | --- | --- | --- | --- |
| O=C(NCCCCNC1COc2ccc(O)cc2C1=O)c1cc2ccccc2[nH]1 (single isomer, unassigned) [SLC02-16A, N-(4-((6-hydroxy-4-oxochroman-3-yl)amino)butyl)-1H-indole-2-carboxamide] | 0.710 | 0.354 ± 0.0451 | 0.245 ± 0.032 |  |
| C[C@H]1CO[C@@H](c2ccc(N)nc2)CN1CC1CC1CNC(=O)c1cc2ccccc2[nH]1 (stereo partly drawn) [cis-FOB01-59B, cis-N-((2-(((2S,5S)-2-(6-aminopyridin-3-yl)-5-methylmorpholino)methyl)cyclopropyl)methyl)-1H-indole-2-carboxamide] | 0.435 | 0.276 ± 0.03 | 0.12 ± 0.0166 |  |
| C[C@H]1CO[C@H](c2ccc(N)nc2)CN1CC1CC1CNC(=O)c1cc2ccccc2[nH]1 (stereo partly drawn) [cis-FOB01-60B, cis-N-((2-(((2R,5S)-2-(6-aminopyridin-3-yl)-5-methylmorpholino)methyl)cyclopropyl)methyl)-1H-indole-2-carboxamide] | 0.235 | 32.9 | 7.73 |  |
| CCCN1CCO[C@@H]2c3cc(OCCCCNC(=O)c4cc5ccccc5[nH]4)ccc3OC[C@H]21 [SLC01-25, N-(4-(((4aR,10bR)-4-propyl-3,4,4a,10b-tetrahydro-2H,5H-chromeno[4,3-b][1,4]oxazin-9-yl)oxy)butyl)-1H-indole-2-carboxamide] | 6.30 | 0.613 ± 0.0506 | 3.86 |  |
| CCCN1CCO[C@@H]2c3cc(OCCCCNC(=O)c4cc5cccnc5[nH]4)ccc3OC[C@H]21 [AB04-42, N-(4-(((4aR,10bR)-4-propyl-3,4,4a,10b-tetrahydro-2H,5H-chromeno[4,3-b][1,4]oxazin-9-yl)oxy)butyl)-1H-pyrrolo[2,3-b]pyridine-2-carboxamide] | 3.12 | 8.66 | 27 |  |
| C[C@H]1CO[C@H](c2ccc(N)nc2)CN1CCCCOc1ccc2c(c1)NC(=O)CC2 [AB04-95, 7-(4-((2R,5S)-2-(6-aminopyridin-3-yl)-5-methylmorpholino)butoxy)-3,4-dihydroquinolin-2(1H)-one] | 0.110 | 24.2 | 2.66 |  |
| CCCN1CCO[C@@H]2c3cc(OCCCCN4C(=O)c5ccccc5C4=O)ccc3OC[C@H]21 [AB02-119] | 2.11 | 1.19 | 2.51 |  |
| CCCN1CCO[C@@H]2c3cc(OCCCCNC(=O)c4cc5ccccc5o4)ccc3OC[C@H]21 [SLC01-26, N-(4-(((4aR,10bR)-4-propyl-3,4,4a,10b-tetrahydro-2H,5H-chromeno[4,3-b][1,4]oxazin-9-yl)oxy)butyl)benzofuran-2-carboxamide] | 1.57 | 6.01 | 9.45 |  |
| C[C@H]1CO[C@H](c2ccc(N)nc2)CN1CC1CC1CNC(=O)c1cc2ccccc2[nH]1 (mixture of isomers) [rac-trans-AB05-26, trans-N-((2-(((2R,5S)-2-(6-aminopyridin-3-yl)-5-methylmorpholino)methyl)cyclopropyl)methyl)-1H-indole-2-carboxamide] | 0.213 | 66.2 | 14.1 |  |
| C[C@H]1CO[C@@H](c2ccc(N)nc2)CN1CCCCOc1ccc2c(c1)NC(=O)CC2 [AB04-96, 7-(4-((2S,5S)-2-(6-aminopyridin-3-yl)-5-methylmorpholino)butoxy)-3,4-dihydroquinolin-2(1H)-one] | 1.11 | 0.0312 ± 0.00872 | 0.0346 ± 0.00486 | 775 |
| CCCN1CCO[C@@H]2c3cc(OCCCCNC(=O)c4ccc5scnc5c4)ccc3OC[C@H]21 [AB04-41, N-(4-(((4aR,10bR)-4-propyl-3,4,4a,10b-tetrahydro-2H,5H-chromeno[4,3-b][1,4]oxazin-9-yl)oxy)butyl)benzo[d]thiazole-5-carboxamide] | 4.30 | 2.13 | 9.16 |  |
